Test results reported in US10208071B2, “Use of agonists of formyl peptide receptor 2 for treating ocular inflammatory diseases” (Allergan, Inc., priority 2013, dated 2019).

Molecular target: FPR2 (Homo sapiens (Human), UniProt P25090)
Assay: FLIPR Ca+2 response, HEK-Gα16 cells stably expressing the human FPR2 receptor (Table 4)
Assay type: cell-based
Conditions: for FPR2 (efficacy): efficacy in parentheses
Experimental: FLIPR: HEK-Gα16 cells stably expressing the human FPR2 receptor was utilized. Cells were plated into 384-well poly-D-lysine coated plates at a density of 18,000 cells per well one day prior to use. The growth media was DMEM medium supplemented with 10% fetal bovine serum (FBS), 1% antibiotic-antimycotic, 50 μg/ml hygromycin, and 400 μg/ml geneticin. On the day of the experiment, the cells were washed twice with Hank's Balanced Salt Solution supplemented with 20 mM HEPES (HBSS/hepes buffer). The cells were then dye loaded with 2 μM Fluo-4 diluted in the HBSS/Hepes buffer and incubated at 37° C. for 40 minutes. Extracellular dye was removed by washing the cell plates four times prior to placing the plates in the FLIPR (Fluorometric Imaging Plate Reader, Molecular Devices). Ligands were diluted in HBSS/Hepes buffer and prepared in 384-well microplates. Data for Ca^+2 responses were obtained in relative fluorescence units.

Chain of FPR2 (P25090 whole entry): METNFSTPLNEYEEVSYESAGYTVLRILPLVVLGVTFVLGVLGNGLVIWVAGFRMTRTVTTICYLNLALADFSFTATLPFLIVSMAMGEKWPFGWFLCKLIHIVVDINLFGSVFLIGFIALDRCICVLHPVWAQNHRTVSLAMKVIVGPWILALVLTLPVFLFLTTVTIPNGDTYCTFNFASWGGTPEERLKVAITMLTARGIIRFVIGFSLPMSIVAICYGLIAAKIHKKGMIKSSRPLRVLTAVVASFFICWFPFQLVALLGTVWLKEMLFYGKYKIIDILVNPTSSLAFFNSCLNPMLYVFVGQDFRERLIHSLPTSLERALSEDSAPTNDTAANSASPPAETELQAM

Q: `CSc1ccc(NC(=O)Nc2ccc3c(c2)C(=O)N(CCc2c[nH]cn2)C(c2ccc(Cl)cn2)C3)cc1` (stereo not drawn) [Compound 32, 1-{3-(5-chloropyridin-2-yl)-2-[2-(1H-imidazol-4-yl)ethyl]-1-oxo-1,2,3,4-tetrahydroisoquinolin-7-yl}-3-[4-(methylsulfanyl)phenyl]urea] was tested. Which “FPR2 (efficacy)” value did it give?
A: Its value is “nM (0.91)”.

Q: Which “FPR2 (efficacy)” value does the source give for `CS(=O)(=O)c1ccc(NC(=O)Nc2ccc3c(c2)C(=O)N(CCc2c[nH]cn2)C(c2ccc(Cl)cn2)C3)cc1` (stereo not drawn) [Compound 33, 1-{3-(5-chloropyridin-2-yl)-2-[2-(1H-imidazol-4-yl)ethyl]-1-oxo-1,2,3,4-tetrahydroisoquinolin-7-yl}-3-[4-(methylsulfonyl)phenyl]urea] here?
A: Its value is “nM (0.99)”.

Q: Which “FPR2 (efficacy)” value does the source give for `CC1(C)C2CCC1C(C(=O)Nc1ccc(Br)cc1)C2C(N)=O` (stereo not drawn) [Compound 34, N-(4-bromophenyl)-7,7-dimethylbicyclo[2.2.1]heptane-2,3-dicarboxamide] here?
A: Its value is “nM (0.83)”.

Q: With `CC1(C)C2CCC1C(C(=O)Nc1ccc(I)cc1)C2C(N)=O` (stereo not drawn) [Compound 35, N-(4-iodophenyl)-7,7-dimethylbicyclo[2.2.1]heptane-2,3-dicarboxamide] as the compound, how does the “FPR2 (efficacy)” value read?
A: The value was “nM (0.81)”.

Q: What does the source list for `CSc1ccc(NC(=O)Nc2ccc3c(c2)C(=O)N(CCCN)[C@@H](c2ccc(C#N)cc2)C3)cc1` [Compound 36, (+)1-[(3R)-2-(3-aminopropyl)-3-(4-cyanophenyl)-1-oxo-1,2,3,4-tetrahydroisoquinolin-7-yl]-3-[4-(methylsulfanyl)phenyl]urea]?
A: EC50: 3.3 nM; FPR2 (efficacy): nM (0.97)

Q: For `CSc1ccc(NC(=O)C2C(C(N)=O)C3CCC2C3(C)C)cc1` (stereo not drawn) [Compound 37, 7,7-dimethyl-N-[4-(methylsulfanyl)phenyl]bicyclo[2.2.1]heptane-2,3-dicarboxamide], which EC50 is on record?
A: The EC50 was 17 nM.

Q: And the “FPR2 (efficacy)” value?
A: The value was “nM (0.85)”.

Q: What does the source list for `NC(=O)C1C(C(=O)Nc2ccc(I)cc2)C2CCC1C21CC1` (stereo not drawn) [Compound 38, N-(4-iodophenyl) spiro[bicyclo[2.2.1]heptane-7,1′-cyclopropane]-2,3-dicarboxamide]?
A: EC50: 1.9 nM; FPR2 (efficacy): nM (0.95)

Q: `NC(=O)C1C(C(=O)Nc2ccc(I)cc2)C2C=CC1C21CC1` (stereo not drawn) [Compound 39, N-(4-iodophenyl) spiro[bicyclo[2.2.1]heptane-7,1′-cyclopropane]-5-ene-2,3-dicarboxamide] was tested. Which EC50 did it give?
A: Its EC50 is 1.6 nM.

Q: What about the “FPR2 (efficacy)” value of the same compound?
A: Its value is “nM (0.90)”.

Q: `C[S+]([O-])c1ccc(NC(=O)Nc2ccc3c(c2)C(=O)N(CCCNC(=O)OC(C)(C)C)[C@@H](c2ccc(C#N)cc2)C3)cc1` (stereo partly drawn) [Compound 40, (+) tert-butyl {3-[(3R)-3-(4-cyanophenyl)-7-({[4-(methylsulfinyl)phenyl]carbamoyl}amino)-1-oxo-3,4-dihydroisoquinolin-2(1H)-yl]propyl}carbamate] was tested. Which EC50 did it give?
A: The EC50 was 103 nM.

Q: And the “FPR2 (efficacy)” value?
A: Its value is “nM (0.91)”.

Q: `C[S+]([O-])c1ccc(NC(=O)Nc2ccc3c(c2)C(=O)N(CCCN)[C@@H](c2ccc(C#N)cc2)C3)cc1` (stereo partly drawn) [Compound 41, (+) 1-[(3R)-2-(3-aminopropyl)-3-(4-cyanophenyl)-1-oxo-1,2,3,4-tetrahydroisoquinolin-7-yl]-3-[4-(methylsulfinyl)phenyl]urea] was tested. Which “FPR2 (efficacy)” value did it give?
A: Its value is “nM (0.94)”.

Q: Which “FPR2 (efficacy)” value does the source give for `CSc1ccc(NC(=O)Nc2ccc3c(c2)C(=O)N(CCCN)C(C)C3)cc1` (stereo not drawn) [Compound 42, 1-[2-(3-aminopropyl)-3-methyl-1-oxo-1,2,3,4-tetrahydroisoquinolin-7-yl]-3-[4-(methylsulfanyl)phenyl]urea] here?
A: Its value is “nM (1.00)”.

Q: For `N#Cc1ccc(C2Cc3ccc(NC(=O)Nc4ccc(I)cc4)cc3C(=O)N2CCCN)cc1` (stereo not drawn) [Compound 43, 1-[2-(3-aminopropyl)-3-(4-cyanophenyl)-1-oxo-1,2,3,4-tetrahydroisoquinolin-7-yl]-3-(4-iodophenyl)urea], which EC50 is on record?
A: The EC50 was 13.7 nM.

Q: And the “FPR2 (efficacy)” value?
A: The value was “nM (0.94)”.

Q: For `O=C(Nc1ccc(Br)cc1)[C@@H]1C2CCC([C@@H]1C(=O)O)C21CC1` (stereo partly drawn) [Compound 44, (+) (2S,3R)-3-[(4-bromophenyl)carbamoyl]spiro[bicyclo[2.2.1]heptane-7,1′-cyclopropane]-2-carboxylic acid], which “FPR2 (efficacy)” value is on record?
A: The value was “nM (0.98)”.

Q: `CNC(=O)C1C(C(=O)Nc2ccc(Br)cc2)C2CCC1C21CC1` (stereo not drawn) [Compound 46, N-(4-bromophenyl)-N′-methylspiro[bicyclo[2.2.1]heptane-7,1′-cyclopropane]-2,3-dicarboxamide] was tested. Which EC50 did it give?
A: The EC50 was 8.5 nM.

Q: What about the “FPR2 (efficacy)” value of the same compound?
A: Its value is “nM (1.0)”.

Q: How did the EC50 turn out when `CCNC(=O)C1C(C(=O)Nc2ccc(Br)cc2)C2CCC1C21CC1` (stereo not drawn) [Compound 47, N-(4-bromophenyl)-N′-ethylspiro[bicyclo[2.2.1]heptane-7,1′-cyclopropane]-2,3-dicarboxamide] was run?
A: Its EC50 is 9.3 nM.

Q: What about the “FPR2 (efficacy)” value of the same compound?
A: The value was “nM (1.0)”.

Q: What does the source list for `CC(C)NC(=O)C1C(C(=O)Nc2ccc(Br)cc2)C2CCC1C21CC1` (stereo not drawn) [Compound 48, N-(4-bromophenyl)-N′-(propan-2-yl)spiro[bicyclo[2.2.1]heptane-7,1′-cyclopropane]-2,3-dicarboxamide]?
A: EC50: 6.7 nM; FPR2 (efficacy): nM (1.0)

Q: `CCC1(CC)NC(=O)N(NC(=O)Nc2ccc(Br)cc2)C1=O` [Compound 49, 1-(4-bromophenyl)-3-(4,4-diethyl-2,5-dioxoimidazolidin-1-yl)urea] was tested. Which EC50 did it give?
A: The EC50 was 11.5 nM.

Q: What about the “FPR2 (efficacy)” value of the same compound?
A: Its value is “nM (0.98)”.

Q: What does the source list for `CCC1(CC)NC(=O)N(NC(=O)Nc2ccc(Br)cc2F)C1=O` [Compound 50, 1-(4-bromo-2-fluorophenyl)-3-(4,4-diethyl-2,5-dioxoimidazolidin-1-yl)urea]?
A: EC50: 15.7 nM; FPR2 (efficacy): nM (1.0)

Q: Which “FPR2 (efficacy)” value does the source give for `O=C(Nc1ccc(I)cc1)N[C@@H](Cc1ccccc1)C(=O)O` [Compound 51, (2S)-2-{[(4-iodophenyl)carbamoyl]amino}-3-phenylpropanoic acid] here?
A: Its value is “nM (1.0)”.

Q: How did the EC50 turn out when `O=C(Nc1ccc(Br)cc1)NN1C(=O)NC2(CCCCC2)C1=O` [Compound 52, 1-(4-bromophenyl)-3-(2,4-dioxo-1,3-diazaspiro[4.5]dec-3-yl)urea] was run?
A: Its EC50 is 15.1 nM.

Q: And the “FPR2 (efficacy)” value?
A: The value was “nM (1.0)”.

Q: Which “FPR2 (efficacy)” value does the source give for `CC1(CCc2ccccc2)NC(=O)N(NC(=O)Nc2ccc(Br)cc2)C1=O` (stereo not drawn) [Compound 54, 1-(4-bromophenyl)-3-[4-methyl-2,5-dioxo-4-(2-phenylethyl)imidazolidin-1-yl]urea] here?
A: The value was “nM (0.87)”.

Q: With `O=C(O)CNC(=O)[C@H](Cc1ccccc1)NC(=O)Nc1ccc(Br)cc1` [Compound 55, {[(2S)-2-{[(4-bromophenyl)carbamoyl]amino}-3-phenylpropanoyl]amino}acetic acid] as the compound, how does the “FPR2 (efficacy)” value read?
A: Its value is “nM (0.99)”.

Q: For `O=C(O)CCNC(=O)[C@H](Cc1ccccc1)NC(=O)Nc1ccc(Br)cc1` [Compound 56, 3-{[(2S)-2-{[(4-bromophenyl)carbamoyl]amino}-3-phenylpropanoyl]amino} propanoic acid], which “FPR2 (efficacy)” value is on record?
A: Its value is “nM (0.98)”.

Q: What does the source list for `O=C(Nc1ccc(Br)cc1)N[C@@H](Cc1ccccc1)C(=O)NCCO` [Compound 58, (2S)-2-{[(4-bromophenyl)carbamoyl]amino}-N-(2-hydroxyethyl)-3-phenylpropanamide]?
A: EC50: 7 nM; FPR2 (efficacy): nM (0.86)

Q: How did the “FPR2 (efficacy)” value turn out when `CC[C@H](C)[C@H](NC(=O)Nc1ccc(Br)cc1F)C(=O)NCC(=O)O` [Compound 59, {[(2S,3S)-2-{[(4-bromo-2-fluorophenyl)carbamoyl]amino}-3-methylpentanoyl]amino}acetic acid] was run?
A: The value was “nM (0.95)”.

Q: With `CC[C@H](C)[C@H](NC(=O)Nc1ccc(Br)cc1)C(=O)NCC(N)=O` [Compound 60, (2S,3S)-N-(2-amino-2-oxoethyl)-2-{[(4-bromophenyl)carbamoyl]amino}-3-methylpentanamide] as the compound, how does the “FPR2 (efficacy)” value read?
A: Its value is “nM (0.91)”.

Q: `CCC1(C(C)C)NC(=O)N(NC(=O)Nc2ccc(Br)cc2F)C1=O` (stereo not drawn) [Compound 61, 1-(4-bromo-2-fluorophenyl)-3-[4-2,5-dioxo-4-(propan-2-yl)imidazolidin-1-yl]urea] was tested. Which EC50 did it give?
A: Its EC50 is 9.2 nM.

Q: What about the “FPR2 (efficacy)” value of the same compound?
A: The value was “nM (0.97)”.

Q: With `CC[C@H](C)[C@H](NC(=O)Nc1ccc(Br)cc1F)C(=O)NCC(N)=O` [Compound 62, (2S,3S)-N-(2-amino-2-oxoethyl)-2-{[(4-bromo-2-fluorophenyl)carbamoyl]amino}-3-methylpentanamide] as the compound, how does the EC50 read?
A: Its EC50 is 10.3 nM.

Q: What about the “FPR2 (efficacy)” value of the same compound?
A: The value was “nM (1.0)”.

Q: `CC[C@H](C)[C@H](NC(=O)Nc1ccc(Br)cc1)C(=O)NCC(C)=O` [Compound 63] was tested. Which EC50 did it give?
A: Its EC50 is 10.5 nM.

Q: And the “FPR2 (efficacy)” value?
A: The value was “nM (0.97)”.

Q: `CC(C)C1(C(C)C)NC(=O)N(NC(=O)Nc2ccc(Br)cc2)C1=O` [Compound 64, 1-(4-bromophenyl)-3-[2,5-dioxo-4,4-di(propan-2-yl)imidazolidin-1-yl]urea] was tested. Which EC50 did it give?
A: Its EC50 is 3.8 nM.

Q: And the “FPR2 (efficacy)” value?
A: Its value is “nM (1.0)”.

Q: `O=C(Nc1ccc(Br)cc1)NN1C(=O)NC(C2CC2)(C2CC2)C1=O` [Compound 65, 1-(4-bromophenyl)-3-(4,4-dicyclopropyl-2,5-dioxoimidazolidin-1-yl)urea] was tested. Which “FPR2 (efficacy)” value did it give?
A: The value was “nM (1.0)”.

Q: Which EC50 does the source give for `CC(=O)CNC(=O)[C@H](Cc1ccccc1)NC(=O)Nc1ccc(Br)cc1F` [Compound 68, (2S)-2-{[(4-bromo-2-fluorophenyl)carbamoyl]amino}-N-(2-oxopropyl)-3-phenylpropanamide] here?
A: The EC50 was 12.4 nM.

Q: What about the “FPR2 (efficacy)” value of the same compound?
A: Its value is “nM (0.94)”.

Q: `CCC1(CCc2ccccc2)NC(=O)N(NC(=O)Nc2ccc(Br)cc2F)C1=O` (stereo not drawn) [Compound 69, 1-(4-bromo-2-fluorophenyl)-3-[4-ethyl-2,5-dioxo-4-(2-phenylethyl)imidazolidin-1-yl]urea] was tested. Which EC50 did it give?
A: Its EC50 is 13.4 nM.

Q: And the “FPR2 (efficacy)” value?
A: The value was “nM (0.91)”.

Q: Which results are given for `CCC[C@H](NC(=O)Nc1ccc(Br)cc1)C(=O)O` [Compound 70, (2S)-2-{[(4-bromophenyl)carbamoyl]amino} pentanoic acid]?
A: EC50: 7.1 nM; FPR2 (efficacy): nM (1.0)
